This note sets out measurements from patent US20050214310A1 (priority 2004, published 2005).

This experiment relates to H3677 melanoma cell line. As to the kind of experiment: cells. Type of experiment: cell-based.
Where [1] appears, read: read-out: IC50 (μM) with L49-βL.

Read-outs that look alike come from different tables or passages of the source.

With `N[C@@H](Cc1ccc(N(CCCl)CCCl)cc1)C(=O)O` [melphalan, 4[bis(2 chloroethyl)amino]-L-phynelalanine, reference compound], half-maximal inhibition (Homo sapiens, H3677) (IC50) was put at 2.8 µM.
For the molecule C-Mel Cyclobutyl Ester, the IC50 runs as follows: (read-out: IC50 (μM) with βL) 0.8 µM; (read-out: IC50 (μM) without βL) 10 µM.
In the case of C-Mel Cyclohexyl Ester, the concentration for half-maximal inhibition (IC50) was determined as 0.23 µM under setting [1], 0.083 µM (read-out: IC50 (μM) with βL) and 1.6 µM (read-out: IC50 (μM) without βL).
Take C-Mel Methyl Ester: the IC50 (read-out: IC50 (μM) with βL) was 0.0018 µM and the IC50 (read-out: IC50 (μM) without βL) turned out to be 0.65 µM.
As to C-Mel t-Butyl Ester, the IC50 (read-out: IC50 (μM) with βL) is 2.1 µM and the concentration for half-maximal inhibition (IC50) (read-out: IC50 (μM) without βL) amounted to 32.3 µM.
Take Glutaryl C-Mel: the IC50 was 2.4 µM under setting [1], 1.4 µM (read-out: IC50 (μM) with βL) and 26.3 µM (read-out: IC50 (μM) without βL).
In the same order, the values of Glutaryl C-Mel Cyclohexyl Ester are 0.14 µM, 0.087 µM and 1.86 µM.
Glutaryl C-Mel-D-Phe-NH2: the IC50 runs as follows: (read-out: IC50 (μM) with βL) 2.1 µM; (read-out: IC50 (μM) without βL) 30 µM.
In the same order, the values of Glutaryl C-Mel-L-Phe-NH2 are 0.05 µM and 3.6 µM.
Regarding “Mel-D-Glu(OMe)2 [Mel-D-Glu bis methyl ester]”, the IC50 (read-out: IC50) was 3.95 µM.
With Mel-Gly-nitrophenyl amide, the 50% inhibitory concentration (IC50) (read-out: IC50) amounted to 1.01 µM.
With “Mel-L-Glu(OMe)2 [Mel-L-Glu bis methyl ester]”, the IC50 (read-out: IC50) is 1.89 µM.
On the same count and under the same terms, the value for Mel-L-Met amide was 0.4 µM.
Still for that read-out and setting: the value for Mel-L-Phe cyclohexyl amide was 0.015 µM; that for Mel-L-homoPhe-NH2 was 0.09 µM.
Regarding Mel-cyclohexyl amide, under “read-out: IC50”, the IC50 was determined as 1.57 µM.
The same measure, in the same setting: the value for Mel-phenethyl amide was 0.97 µM.
Turning to Mel-propargylalanine-NH2, the IC50 (read-out: IC50) worked out at 0.31 µM.
In the case of “Melphalan (2-trifluoromethyl)phenethyl ester”, the IC50 (read-out: IC50) was determined as 3 µM.
On the same count and under the same terms, the result for “Melphalan (4-cis-t-butyl) cyclohexyl ester [melphalan cis-4-t-butylcyclohexyl ester]” reads 13 µM; that for “Melphalan (4-n-propyl)phenethyl ester [melphalan (4-butyl)phenethyl ester]”, 4.6 µM.
In the case of “Melphalan (4-trans-t-butyl) cyclohexyl ester”, where the note is “read-out: IC50”, the half-inhibitory concentration (IC50) came out at 3.6 µM.
Take Melphalan Cyclobutyl Ester: the IC50 (read-out: IC50) worked out at 0.2 µM.
In the case of Melphalan Cyclohexyl Ester, the half-maximal inhibitory concentration (IC50) (read-out: IC50) amounted to 0.074 µM.
As for Melphalan Cyclooctyl Ester, the IC50 (read-out: IC50) was 5 µM.
Same read-out and setting: the value for Melphalan Methyl Ester was 0.054 µM; that for Melphalan Phenethyl Ester was 0.17 µM; that for Melphalan t-Butyl Ester was 3.34 µM.
For the molecule glutaryl C-Mel t-butyl ester, the IC50 by setting is: (read-out: IC50 (μM) with βL) 2.3 µM; (read-out: IC50 (μM) without βL) 25 µM.
Consider melphalan amide, for which the IC50 (read-out: IC50) was determined as 0.64 µM.
On the same count and under the same terms, the value for melphalan anilide was 1.2 µM.
